Laboratory results: PMC9181188 (International Journal of Molecular Sciences, 2022)
In brackets after ≈: the same amount, converted by molar mass. Read-outs that look alike come from different tables or passages of the source.

Legend:
SW620 cells = assay: MTT assay, SW620; format: cell-based, human; conditions: for IC50: Homo sapiens, SW-620, 72 h, human metastatic colon cancer, 72 h, MTT, mean ± SD; for SI SW620: SI = IC50 for normal cell line (HaCaT)/IC50 cancer cell line
HaCaT cells = assay: MTT assay, HaCaT normal cells; format: cell-based; conditions: human immortal keratinocyte cell line, 72 h, mean ± SD
[1] = test system: S. epidermidis KR 4358/2 840/19; assay: MIC, clinical S. epidermidis strain; format: cell-based; conditions: Staphylococcus epidermidis, read-out: MIC KR 4358/2 840/19
[2] = test system: S. epidermidis KR 4313 834/19; assay: MIC, clinical S. epidermidis strain; format: cell-based; conditions: Staphylococcus epidermidis, KR4313834/19, quinolone-susceptible, 18 h of treatment
S. aureus ATCC 6538 = assay: MIC, twofold microdilution, standard strain; format: cell-based; conditions: Staphylococcus aureus, read-out: MIC S. aureus ATCC 6538
[3] = test system: standard staphylococci (S. aureus, S. epidermidis); assay: MIC, standard Gram-positive strains as a group; format: cell-based; conditions: Staphylococcus aureus; range over standard Gram-positive strains; read-out: MIC against standard staphylococci
[4] = test system: SW480, SW620, and PC3 cancer cell lines; assay: MTT assay, cancer cell lines as a group; format: cell-based, human; conditions: 72 h, all three cancer cell lines (SW480, SW620, PC3), read-out: IC50 against all tested cancer cell lines
[5] = test system: S. epidermidis T 5501 851/19; assay: MIC, clinical S. epidermidis strain; format: cell-based; conditions: Staphylococcus epidermidis, T5501851/19, read-out: MIC T 5501 851/19, quinolone-susceptible, 18 h of treatment
PC3 cells = assay: MTT assay, PC3; format: cell-based, human; conditions: for SI PC3: SI = IC50 for normal cell line (HaCaT)/IC50 cancer cell line; for IC50: Homo sapiens, PC-3, 72 h, human metastatic prostate cancer, 72 h, MTT, mean ± SD
E. coli ATCC 25922 = assay: MIC, twofold microdilution, standard strain; format: cell-based, Escherichia coli; conditions: Escherichia coli, read-out: MIC E. coli ATCC 25922
[6] = test system: S. epidermidis T 5399 848/19; assay: MIC, clinical S. epidermidis strain; format: cell-based; conditions: Staphylococcus epidermidis, T5399848/19, quinolone-susceptible, 18 h of treatment
S. aureus ATCC 29213 = assay: MIC, twofold microdilution, standard strain; format: cell-based; conditions: Staphylococcus aureus, read-out: MIC S. aureus ATCC 29213
[7] = test system: S. epidermidis KR 4047 825/19; assay: MIC, clinical S. epidermidis strain; format: cell-based; conditions: Staphylococcus epidermidis, KR4047825/19, quinolone-resistant, 18 h of treatment
[8] = test system: S. epidermidis KR 4243 829/19; assay: MIC, clinical S. epidermidis strain; format: cell-based; conditions: Staphylococcus epidermidis, KR4243829/19, quinolone-susceptible, 18 h of treatment
S. aureus NCTC 4163 = assay: MIC, twofold microdilution, standard strain; format: cell-based; conditions: Staphylococcus aureus, read-out: MIC S. aureus NCTC 4163
S. aureus ATCC 25923 = assay: MIC, twofold microdilution, standard strain; format: cell-based; conditions: Staphylococcus aureus, read-out: MIC S. aureus ATCC 25923
[9] = test system: S. epidermidis ATCC 35984; assay: MIC, twofold microdilution, standard strain; format: cell-based; conditions: Staphylococcus epidermidis, read-out: MIC S. epidermidis ATCC 35984
M. tuberculosis H37Rv = assay: MABA (microplate Alamar blue assay) MIC; format: cell-based; conditions: Mycobacterium tuberculosis, 336 h, read-out: MIC M. tuberculosis H37Rv
[10] = test system: M. tuberculosis Spec. 192 (Sensitive to Tuberculostatics); assay: MABA (microplate Alamar blue assay) MIC; format: cell-based; conditions: Mycobacterium tuberculosis, 336 h, read-out: MIC M. tuberculosis Spec. 192 (Sensitive to Tuberculostatics)
[11] = test system: S. epidermidis T 5253 845/19; assay: MIC, clinical S. epidermidis strain; format: cell-based; conditions: Staphylococcus epidermidis, T5253845/19, quinolone-resistant, 18 h of treatment
[12] = test system: S. epidermidis ATCC 12228; assay: MIC, twofold microdilution, standard strain; format: cell-based; conditions: Staphylococcus epidermidis, read-out: MIC S. epidermidis ATCC 12228
SW480 cells = assay: MTT assay, SW480; format: cell-based, human; conditions: for IC50: Homo sapiens, SW480, 72 h, human primary colon cancer, 72 h, MTT, mean ± SD; for SI SW480: SI = IC50 for normal cell line (HaCaT)/IC50 cancer cell line
P. aeruginosa ATCC 27853 = assay: MIC, twofold microdilution, standard strain; format: cell-based; conditions: Pseudomonas aeruginosa, read-out: MIC P. aeruginosa ATCC 27853
M. tuberculosis strains = assay: MABA MIC, mycobacterial strains as a group; format: cell-based; conditions: Mycobacterium tuberculosis; summary over strains; read-out: MIC antimycobacterial (strain not specified)
[13] = KR4358/2840/19, clinical S. epidermidis, quinolone-susceptible, 18 h of treatment

Structure (SMILES)	IC50 (SW620 cells)	SI SW620 (SW620 cells)	IC50 (HaCaT cells)	MIC [2]	MIC (S. aureus ATCC 6538; ATCC6538, 18 h of treatment)	MIC [3]	IC50 ([4]; Homo sapiens)	MIC [5]	SI PC3 (PC3 cells)	MIC [6]	MIC (S. aureus ATCC 29213; ATCC29213, 18 h of treatment)	MIC [7]	MIC [8]	MIC (S. aureus NCTC 4163; NCTC4163, 18 h of treatment)	MIC (S. aureus ATCC 25923; ATCC25923, 18 h of treatment)	MIC ([9]; ATCC35984, 18 h of treatment)	MIC (M. tuberculosis H37Rv)	MIC [11]	IC50 (SW480 cells)	SI SW480 (SW480 cells)	other results
CCCCCCCC/C=C\CCCCCCCC(=O)N1CCCC2CN(c3c(F)cc4c(=O)c(C(=O)O)cn(C5CC5)c4c3OC)CC21 (centres unmarked) [Compound 4m, 1-Cyclopropyl-6-fluoro-8-methoxy-7-{1-(Z)-octadec-9-enoyl-octahydro-pyrrolo[3,4-b]pyridin-6-yl}-4-oxo-1,4-dihydro-quinoline-3-carboxylic acid]	3.4 ± 0.7 µM	27.1	92.3 ± 6.1 µM	> 512 mg/L	128 mg/L (≈ 192 µM)	> 32 mg/L	< 5 µM	> 512 mg/L	71.0	> 512 mg/L	512 mg/L (≈ 769 µM)	> 512 mg/L	> 512 mg/L	128 mg/L (≈ 192 µM)	256 mg/L (≈ 384 µM)	256 mg/L (≈ 384 µM)	> 512 mg/L	> 512 mg/L	4.6 ± 1.4 µM	20.1	MIC ([1]; KR4358/2840/19, 18 h): > 512 mg/L; MIC (E. coli ATCC 25922; ATCC25922, 18 h of treatment): 512 mg/L (≈ 769 µM); MIC [10]: > 512 mg/L; MIC ([12]; ATCC12228, 18 h): > 512 mg/L; MIC (P. aeruginosa ATCC 27853; ATCC27853, 18 h of treatment): 128 mg/L (≈ 192 µM)
CCCCCCCC/C=C/CCCCCCCC(=O)N1CCCC2CN(c3c(F)cc4c(=O)c(C(=O)O)cn(C5CC5)c4c3OC)CC21 (centres unmarked) [Compound 5m, 1-Cyclopropyl-6-fluoro-8-methoxy-7-{1-(E)-octadec-9-enoyl-octahydro-pyrrolo[3,4-b]pyridin-6-yl}-4-oxo-1,4-dihydro-quinoline-3-carboxylic acid]	8.7 ± 1.2 µM	10.5	91.6 ± 4.6 µM	256 mg/L (≈ 384 µM)	> 512 mg/L	> 32 mg/L	5 to 10 µM	512 mg/L (≈ 769 µM)	17.3	512 mg/L (≈ 769 µM)	> 512 mg/L	> 512 mg/L	> 512 mg/L	> 512 mg/L	> 512 mg/L	> 512 mg/L	–	512 mg/L (≈ 769 µM)	6.7 ± 0.6 µM	13.7	MIC [1, 13]: 512 mg/L (≈ 769 µM); IC50 (PC3 cells): 5.3 ± 1.3 µM; MIC (E. coli ATCC 25922; ATCC25922, 18 h of treatment): > 512 mg/L; MIC (M. tuberculosis H37Rv; 2 weeks of treatment): 512 mg/L (≈ 769 µM); MIC [10]: 256 mg/L (≈ 384 µM); MIC ([12]; ATCC12228, 18 h of treatment): > 512 mg/L; MIC (P. aeruginosa ATCC 27853; ATCC27853, 18 h of treatment): 128 mg/L (≈ 192 µM)
CC/C=C\C/C=C\C/C=C\CCCCCCCC(=O)N1CCCC2CN(c3c(F)cc4c(=O)c(C(=O)O)cn(C5CC5)c4c3OC)CC21 (centres unmarked) [Compound 6m, 1-Cyclopropyl-6-fluoro-8-methoxy-7-{1-(9Z,12Z,15Z)-octadeca-9,12,15-trienoyl-octahydro-pyrrolo[3,4-b]pyridin-6-yl}-4-oxo-1,4-dihydro-quinoline-3-carboxylic acid]	15.6 ± 2.6 µM	6.2	96.6 ± 5.5 µM	64 mg/L (≈ 96.7 µM)	16 mg/L (≈ 24.2 µM)	8 to 32 mg/L (≈ 12.1 to 48.3 µM)	–	128 mg/L (≈ 193 µM)	6.7	32 mg/L (≈ 48.3 µM)	16 mg/L (≈ 24.2 µM)	256 mg/L (≈ 387 µM)	64 mg/L (≈ 96.7 µM)	16 mg/L (≈ 24.2 µM)	32 mg/L (≈ 48.3 µM)	32 mg/L (≈ 48.3 µM)	256 mg/L (≈ 387 µM)	256 mg/L (≈ 387 µM)	16.7 ± 3.1 µM	5.8	MIC [1, 13]: 64 mg/L (≈ 96.7 µM); IC50 (PC3 cells): 14.4 ± 2.4 µM; MIC (M. tuberculosis strains): ≥ 128 mg/L; MIC (E. coli ATCC 25922; ATCC25922, 18 h): 256 mg/L (≈ 387 µM); MIC ([10]; 2 weeks of treatment): 128 mg/L (≈ 193 µM); MIC ([12]; ATCC12228, 18 h of treatment): 32 mg/L (≈ 48.3 µM); MIC (P. aeruginosa ATCC 27853; ATCC27853, 18 h of treatment): > 512 mg/L
CCCCCCCCCCCCCCCC(=O)N1CCC[C@H]2CN(c3c(F)cc4c(=O)c(C(=O)O)cn(C5CC5)c4c3OC)C[C@H]21 [Compound 9m, 1-Cyclopropyl-6-fluoro-7-(1-hexadecanoyl-octahydro-pyrrolo[3,4-b]pyridin-6-yl)-8-methox-4-oxo-1,4-dihydro-quinoline-3-carboxylic acid]	10.4 ± 1.4 µM	9.3	96.7 ± 2.6 µM	512 mg/L (≈ 800 µM)	–	> 32 mg/L	5 to 10 µM	512 mg/L (≈ 800 µM)	11.9	512 mg/L (≈ 800 µM)	–	512 mg/L (≈ 800 µM)	512 mg/L (≈ 800 µM)	–	–	–	> 512 mg/L	512 mg/L (≈ 800 µM)	9.4 ± 2.3 µM	10.3	MIC ([1]; KR4358/2840/19, 18 h): > 512 mg/L; MIC (S. aureus ATCC 6538; ATCC6538, 18 h): > 512 mg/L; IC50 [4]: 5.6 to 10.4 µM; IC50 (PC3 cells): 8.1 ± 1.5 µM; MIC (E. coli ATCC 25922; ATCC25922, 18 h): > 512 mg/L; MIC (S. aureus ATCC 29213; ATCC29213, 18 h): > 512 mg/L; MIC (S. aureus NCTC 4163; NCTC4163, 18 h): > 512 mg/L; MIC (S. aureus ATCC 25923; ATCC25923, 18 h): > 512 mg/L; MIC ([9]; ATCC35984, 18 h): > 512 mg/L; MIC [10]: > 512 mg/L; MIC ([12]; ATCC12228, 18 h): > 512 mg/L; MIC (P. aeruginosa ATCC 27853; ATCC27853, 18 h): > 512 mg/L
